Assay results: paper PMC12597552 (Drug metabolism and disposition: the biological fate of …, 2025)
Like-named read-outs stand apart in the source and are kept apart here.

Key:
[1] = value set in static model; cited from earlier work
CYP2C9 [2] = biological target: T1, CYP2C9 (Homo sapiens, UniProt P11712); assay: Inhibition of recombinant CYP2C9-overexpressing microsomes (diclofenac and warfarin probes); type: in vitro ADME; design: made in house; host or cells: HEK293 cells (microsomal fraction); details: for inhibition mechanism (Lineweaver–Burk): recombinant P450 microsomes and HLM, consistent profiles; for IC50: IC50,u, rec CYP2C9 microsomes; for IC50 / Ki: unbound, mean ± SD; for Ki: Ki,u, rec CYP2C9
T1 sequence (P11712 whole entry): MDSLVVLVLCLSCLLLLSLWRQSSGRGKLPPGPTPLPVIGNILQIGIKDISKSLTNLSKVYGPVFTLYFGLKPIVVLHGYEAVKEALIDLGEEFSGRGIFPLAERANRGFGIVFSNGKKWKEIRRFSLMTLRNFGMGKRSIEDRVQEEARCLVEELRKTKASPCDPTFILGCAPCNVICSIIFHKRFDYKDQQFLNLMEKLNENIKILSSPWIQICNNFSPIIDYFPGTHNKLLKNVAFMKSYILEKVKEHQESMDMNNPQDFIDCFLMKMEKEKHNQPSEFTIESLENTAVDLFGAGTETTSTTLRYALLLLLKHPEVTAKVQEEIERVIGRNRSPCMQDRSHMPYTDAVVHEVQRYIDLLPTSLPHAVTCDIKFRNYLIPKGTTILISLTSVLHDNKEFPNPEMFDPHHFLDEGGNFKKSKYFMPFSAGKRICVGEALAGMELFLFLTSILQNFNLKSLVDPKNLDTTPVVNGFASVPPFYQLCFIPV

CYP3A4 [3] = biological target: T2, CYP3A4 (Homo sapiens, UniProt P08684); assay: IC50 shift assay in recombinant CYP3A4 microsomes; type: in vitro ADME; design: made in house; details: recombinant CYP3A4-overexpressing microsomes, probe midazolam (1′-hydroxylation), 1′-hydroxylation of midazolam, rec CYP3A4, 30-min preincubation minus vs plus NADPH, mean ± SD
T2 sequence (P08684 whole entry): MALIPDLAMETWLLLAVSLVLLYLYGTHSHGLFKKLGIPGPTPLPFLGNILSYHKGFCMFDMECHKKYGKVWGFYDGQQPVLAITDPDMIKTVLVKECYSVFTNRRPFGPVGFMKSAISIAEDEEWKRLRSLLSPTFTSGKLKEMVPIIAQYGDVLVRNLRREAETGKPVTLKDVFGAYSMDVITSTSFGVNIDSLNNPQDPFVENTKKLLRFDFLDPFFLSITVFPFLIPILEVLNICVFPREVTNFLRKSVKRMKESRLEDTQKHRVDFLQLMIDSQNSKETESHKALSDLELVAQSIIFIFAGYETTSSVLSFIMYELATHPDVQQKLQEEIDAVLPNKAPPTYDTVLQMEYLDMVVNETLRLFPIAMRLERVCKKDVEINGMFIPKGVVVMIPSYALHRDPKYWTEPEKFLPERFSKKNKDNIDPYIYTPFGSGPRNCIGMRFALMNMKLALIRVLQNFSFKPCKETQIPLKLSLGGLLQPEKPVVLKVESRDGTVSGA
Experimental: (§1) To characterize inhibition type, IC50 shift studies were performed using recombinant P450-overexpressing microsomes. Assays were preincubated at 37°C for 30 minutes with cannabinoid with or without NADPH in the absence of a probe substrate. After preincubation, substrate was added and incubated for 30 minutes. IC50 values were calculated as mentioned above using GraphPad Prism 10.0.
(§2) IC50shift=IC50with30-minpreincubationminusNADPH/IC50with30-minpreincubationplusNADPH

CYP2C9 and CYP3A4 = assay: IC50,u / Ki,u summarised across all CYP2C9 and CYP3A4 enzyme-substrate pairs; type: in vitro ADME; details: human, pH 7.4; both recombinant enzyme microsomes and HLM; read-out: IC50,u against CYPs 2C9 and 3A4
Experimental: Reactions were preincubated at 37°C for 3 minutes before initiating with an NADPH-regenerating system. Incubation times were 5 – 30 minutes for recombinant P450 microsomes (Supplemental Table 1) and 10 minutes for HLM. […] Approximately 30 μL of the supernatant was transferred to an ultraperformance liquid chromatography (UPLC) vial for analysis. To reduce nonspecific binding of cannabinoids, all incubations were performed using low-binding 0.6-mL tubes. Probe substrates were used at concentrations near their Michaelis-Menten constants ( Km ) to minimize off-target interactions.[13],[20]–[25]
Initial screening studies were performed using recombinant P450-overexpressing microsomes and 1 or 10 μM cannabinoid concentrations and validated using HLM. […] All determinations were performed in triplicate for reproducibility.
To determine Ki values for each P450 enzyme, substrate and inhibitor concentrations were selected based on known Km and IC50 values. […] Internal standards (deuterated metabolites) were used to normalize metabolite peak areas. Lineweaver–Burk plots ( 1/v vs 1/S ) were used to characterize inhibition type. […] Reaction velocity ( v ) refers to the rate of metabolite formation, calculated by dividing the metabolite peak area by the internal standard peak area for a given reaction. […]

[4] = test system: CYPs 1A2, 2B6, 2C8, 2C9, 2C19, 2D6, 2E1, and 3A4; assay: Initial inhibition screen at 1 or 10 μM, panel of major hepatic P450 enzymes; type: in vitro ADME, human; details: enzymes other than CYPs 2C9 and 3A4
CYP3A4 [5] = biological target: T2, CYP3A4; assay: Inhibition of recombinant CYP3A4-overexpressing microsomes (midazolam probe); type: in vitro ADME; design: made in house; host or cells: HEK293 cells (microsomal fraction)
CYP2C9 [6] = biological target: T1, CYP2C9; assay: Inhibition of CYP2C9 activity in pooled human liver microsomes (diclofenac and warfarin probes); type: in vitro ADME; design: made in house; host or cells: HEK293 cells (microsomal fraction); details: HLM, unbound, adjusted with fu,inc, mean ± SD; for IC50: IC50,u; for Ki: Ki,u
CB1 receptors = test system: CB1 receptors; design: method as in PMID 10633038; details: partial agonist; cited from earlier work
[7] = set by similarity to Δ9-THC; cited from earlier work
[8] = cited from earlier work
CYP3A4 [9] = biological target: T2, CYP3A4; assay: Initial inhibition screen at 1 or 10 μM, CYP3A4 (recombinant microsomes and HLM); type: in vitro ADME; design: made in house; host or cells: HEK293 cells (microsomal fraction)
CB2 receptors = test system: CB2 receptors; design: method as in PMID 10633038; details: partial agonist; cited from earlier work
CYP3A4 [10] = biological target: T2, CYP3A4; assay: Inhibition of CYP3A4 activity in pooled human liver microsomes (midazolam probe); type: in vitro ADME; design: made in house; host or cells: HEK293 cells (microsomal fraction)
Excerpt: V5-tagged human P450 enzymes (CYPs 1A2, 2B6, 2C8, 2C9, 2C19, 2D6, 2E1, and 3A4) were cloned and overexpressed in HEK293 cells and microsomal fractions were isolated by differential centrifugation as previously described,[19] with expression monitored by western blot analysis. An anti-V5-tagged antibody (1:1000) and an anti-calnexin polyclonal rabbit antibody (1:1000) together with an anti-rabbit IgG, HRP-linked antibody (1:5000) were used to probe V5 and calnexin, respectively (Supplemental Fig. 1). Briefly, microsomes (25 μg) were electrophoresed on a 10% SDS–polyacrylamide gel and proteins were transferred to polyvinylidene difluoride membranes using a iBlot Gel Transfer Stacks polyvinylidene difluoride, Regular kit (Catalog No. IB401001). […] Calnexin bands served as the loading control for microsomal protein samples, whereas V5-HRP bands indicated the expression of each P450 enzyme, which was not detected in microsomes from parental HEK293 cells. Microsomal protein quantified using the BCA protein assay following the manufacturer’s instructions. […]
Metabolites were quantified using a Waters Acquity UPLC system coupled to a Xevo TQD triple-quadrupole mass spectrometer (Waters). […]
The percent activity for a given reaction was calculated by comparing metabolite formation between inhibitor-treated incubations and vehicle controls, as detailed below. […]

CYP2C9 [11] = biological target: T1, CYP2C9; assay: IC50 shift assay in recombinant CYP2C9 microsomes; type: in vitro ADME; design: made in house; details: recombinant CYP2C9-overexpressing microsomes, probe diclofenac (4′-hydroxylation), 4′-hydroxylation of diclofenac, rec CYP2C9, 30-min preincubation minus vs plus NADPH, mean ± SD
Experimental: as §1, §2

CYP2C9 [12] = biological target: T1, CYP2C9; assay: Initial inhibition screen at 1 or 10 μM, CYP2C9 (recombinant microsomes and HLM); type: in vitro ADME; design: made in house; host or cells: HEK293 cells (microsomal fraction); details: 10 μM cannabinoid; recombinant P450-overexpressing microsomes as well as HLM
CYP2B6 = details: read-out: Ki,u, cited from earlier work
CYP2C9 [13] = biological target: T1, CYP2C9; details: CYP2C9-mediated 4′-hydroxylation of diclofenac; cited from earlier work
CYP3A4 [14] = biological target: T2, CYP3A4; details: CYP3A4-mediated 1′-hydroxylation of midazolam; cited from earlier work
CYP3A4 [15] = test system: CYP3A4; design: method as in PMID 34493602; details: 800 mg oral dose of CBD; mechanistic static modeling; cited from earlier work
CYP2C9 [16] = details: mechanistic static modeling, cited from earlier work
CYP2D6 = details: read-out: Ki,u, cited from earlier work
CYP2C19 = details: read-out: Ki,u, cited from earlier work
CYP1A2 = details: read-out: Ki,u, cited from earlier work

With `CC(=O)CC(c1ccccc1)c1c(O)c2ccccc2oc1=O` (stereo not shown) [warfarin] as the compound, how does the “fm (fraction of hepatic clearance mediated by the inhibited P450 enzyme)” value [1] read?
The value was 0.91.

Which “Inhibition Type” value (CYP2C9 [2]; 4′-hydroxylation of diclofenac, cell merged over rec CYP2C9 and HLM) does the source give for `CCCCCc1cc(O)c2c(c1)OC(C)(C)C1CC=C(C)CC21` (stereo not shown) [Δ8-THC, Δ8-Tetrahydrocannabinol] here?
Its value is “N”.

And the “inhibition mechanism (Lineweaver–Burk)” value (CYP2C9 [2]; CYP2C9-mediated diclofenac metabolism)?
Its value is “noncompetitive inhibition”.

What about the “inhibition mechanism (Lineweaver–Burk)” value (CYP2C9 [2]; CYP2C9-mediated warfarin metabolism) of the same compound?
The value was “competitive inhibition”.

And the IC50 (CYP2C9 [2]; diclofenac -> 4′-hydroxydiclofenac, adjusted with fu,inc of Δ9-THC / 11-OH-Δ9-THC, 3 experiments)?
The IC50 was 70 ± 10 nM.

And the IC50 (CYP2C9 [2]; warfarin -> 7′-hydroxywarfarin, adjusted with fu,inc)?
Its IC50 is 200 ± 30 nM.

What about the Ki (CYP2C9 [2]; 4′-hydroxylation of diclofenac, adjusted with fu,inc) of the same compound?
Its Ki is 260 ± 10 nM.

And the Ki (CYP2C9 [2]; 7′-hydroxylation of warfarin, adjusted with fu,inc)?
The Ki was 90 ± 40 nM.

And the Ki (CYP2C9 [2]; human, recombinant CYP2C9-overexpressing HEK293 microsomes, pH 7.4, probe warfarin (7′-hydroxylation), 7′-hydroxylation of warfarin, adjusted with fu,inc)?
Its Ki is 160 ± 40 nM.

And the IC50 shift at 30 min (CYP3A4 [3])?
Its IC50 shift at 30 min is 0.85 ± 0.09.

What about the IC50 (CYP2C9 and CYP3A4) of the same compound?
Its IC50 is under 500 nM.

And the “inhibition of other major hepatic P450 enzymes tested” value [4]?
The value was “Minimal or no inhibition”.

And the IC50 (CYP3A4 [5])?
Its IC50 is 440 ± 140 nM.

What about the Ki (CYP3A4 [5]) of the same compound?
The Ki was 860 ± 280 nM.

And the “Inhibition Type” value (CYP3A4 [5]; 1′-hydroxylation of midazolam, cell merged over rec CYP3A4 and HLM)?
The value was “N”.

And the “inhibition mechanism (Lineweaver–Burk)” value (CYP3A4 [5]; CYP3A4-mediated midazolam metabolism, recombinant P450 microsomes and HLM, consistent profiles)?
The value was “noncompetitive inhibition”.

What about the IC50 (CYP2C9 [6]; diclofenac -> 4′-hydroxydiclofenac) of the same compound?
The IC50 was 230 ± 30 nM.

What about the IC50 (CYP2C9 [6]; warfarin -> 7′-hydroxywarfarin) of the same compound?
The IC50 was 440 ± 140 nM.

What about the Ki (CYP2C9 [6]; 4′-hydroxylation of diclofenac) of the same compound?
Its Ki is 320 ± 60 nM.

What about the Ki (CYP2C9 [6]; 7′-hydroxylation of warfarin) of the same compound?
Its Ki is 230 ± 90 nM.

And the “potency relative to Δ9-THC” value (CB1 receptors)?
The value was “approximately half”.

And the “fu,p (unbound fraction of drug in plasma)” value [7]?
The value was 0.03.

What about the Cmax ([8]; oral Δ8-THC dose 10 mg) of the same compound?
The Cmax was 7.9 nM.

And the Cmax ([8]; oral Δ8-THC dose 20 mg)?
Its Cmax is 17.8 nM.

What about the Cmax ([8]; oral Δ8-THC dose 40 mg) of the same compound?
Its Cmax is 48 nM.

What about the “reduction of 1′-hydroxymidazolam formation” value (CYP3A4 [9]; 10 μM cannabinoid, recombinant P450-overexpressing microsomes as well as HLM) of the same compound?
Its value is over 40%.

What about the “inhibition of CYP3A4 with testosterone as substrate” value (CYP3A4 [9]; substrate-specific: midazolam vs testosterone) of the same compound?
Its value is “inhibition observed for midazolam but not testosterone”.

What about the “potency relative to Δ9-THC” value (CB2 receptors) of the same compound?
The value was “approximately half”.

What about the IC50 (CYP3A4 [10]) of the same compound?
Its IC50 is 480 ± 110 nM.

And the Ki (CYP3A4 [10])?
The Ki was 520 ± 20 nM.

What about the IC50 shift at 30 min (CYP2C9 [11]) of the same compound?
Its IC50 shift at 30 min is 1.24 ± 0.34.

And the “reduction of 4′-hydroxydiclofenac formation” value (CYP2C9 [12])?
Its value is over 40%.

And the “reduction of 7′-hydroxywarfarin formation” value (CYP2C9 [12])?
Its value is over 40%.

Which Ki (CYP2B6; CYP2B6 in HLM) does the source give for `CCCCCc1cc(O)c2c(c1)OC(C)(C)C1CCC(CO)=CC21` (stereo not shown) [11-OH-Δ9-THC] here?
The Ki was 260 ± 41 nM.

What about the Ki (CYP2B6; recombinant CYP2B6) of the same compound?
The Ki was 86 ± 66 nM.

And the mechanism of inhibition (CYP2C9 [13])?
Its mechanism of inhibition is “competitive inhibitors”.

And the “inhibitory effect on CYP3A4” value (CYP3A4 [14])?
Its value is “not observed previously”.

With `C=C(C)[C@@H]1CCC(C)=C[C@H]1c1c(O)cc(CCCCC)cc1O` [CBD, cannabidiol] as the compound, how does the “increase in systemic exposure of midazolam” value (CYP3A4 [15]) read?
Its value is over 8 fold.

Which “increase in systematic exposure of diclofenac” value (CYP2C9 [16]; 40 mg oral dose of Δ9-THC) does the source give for `CCCCCc1cc(O)c2c(c1)OC(C)(C)C1CCC(C)=CC21` (stereo not shown) [Δ9-THC, Δ9-tetrahydrocannabinol] here?
The value was at least 44%.

And the “increase in systematic exposure of diclofenac” value (CYP2C9 [16]; 130 mg oral dose of Δ9-THC)?
Its value is over 560%.

And the Ki (CYP2B6; CYP2B6 in HLM)?
The Ki was 380 ± 29 nM.

What about the Ki (CYP2B6; recombinant CYP2B6) of the same compound?
Its Ki is 250 ± 43 nM.

And the Ki (CYP2D6; CYP2D6 in HLM)?
The Ki was 280 ± 30 nM.

And the Ki (CYP2D6; recombinant CYP2D6)?
Its Ki is 110 ± 15 nM.

What about the mechanism of inhibition (CYP2C9 [13]) of the same compound?
Its mechanism of inhibition is “competitive inhibitors”.

And the Ki (CYP2C19; CYP2C19 in HLM)?
Its Ki is 210 ± 82 nM.

And the Ki (CYP2C19; recombinant CYP2C19)?
The Ki was 56 ± 18 nM.

And the Ki (CYP1A2; CYP1A2 in HLM)?
The Ki was 100 ± 56 nM.

What about the Ki (CYP1A2; recombinant CYP1A2) of the same compound?
The Ki was 90 ± 27 nM.
